According to US9302999B2, “Substituted triazoles as herbicides” (E. I. DU PONT DE NEMOURS AND COMPANY, priority 2012, dated 2016):

Assays:
Assay type in all cases: in vivo
[1] = system: barnyardgrass (Echinochloa crus-galli); experiment: Test A pre-/postemergence: barnyardgrass; conditions: for Barnyardgrass plant response rating: Postemergence; for Plant response rating, Barnyardgrass: Preemergence
Outline: (§1)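 Seeds were sown in loam/sand blend and sprayed preemergence (directed soil spray) and, simultaneously, postemergence at 2–10 cm, one- to two-leaf stage, using compounds in non-phytotoxic solvent with surfactant. After ~10 days in greenhouse, injury was rated visually versus untreated controls, 0 (no effect) to 100 (complete control).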

[2] = system: crabgrass, large (large crabgrass, Digitaria sanguinalis); experiment: Test A pre-/postemergence: crabgrass, large; conditions: for Crabgrass, Large plant response rating: Postemergence; for Plant response rating, Crabgrass, Large: Preemergence
Outline: as §1

[3] = system: foxtail, giant (giant foxtail, Setaria faberii); experiment: Test A pre-/postemergence: foxtail, giant; conditions: for Foxtail, Giant plant response rating: Postemergence; for Plant response rating, Foxtail, Giant: Preemergence
Outline: as §1

[4] = system: morningglory (Ipomoea spp.); experiment: Test A pre-/postemergence: morningglory; conditions: for Morningglory plant response rating: Postemergence; for Plant response rating, Morningglory: Preemergence
Outline: as §1

[5] = system: pigweed (Amaranthus retroflexus); experiment: Test A pre-/postemergence: pigweed; conditions: for Pigweed plant response rating: Postemergence; for Plant response rating, Pigweed: Preemergence
Outline: as §1

[6] = system: velvetleaf (Abutilon theophrasti); experiment: Test A pre-/postemergence: velvetleaf; conditions: for Velvetleaf plant response rating: Postemergence; for Plant response rating, Velvetleaf: Preemergence
Outline: as §1

[7] = system: wheat (Triticum aestivum); experiment: Test A pre-/postemergence: wheat; conditions: for Wheat plant response rating: Postemergence; for Plant response rating, Wheat: Preemergence
Outline: as §1

corn (Zea mays) = experiment: Test A pre-/postemergence: corn; conditions: for Corn plant response rating: Postemergence; for Plant response rating, Corn: Preemergence
Outline: as §1

rice (Oryza sativa) = experiment: Test C flooded paddy test: rice; conditions: scale 0 to 100 (0 no effect, 100 complete control)
Outline: (§2)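 2-leaf stage plants; pots flooded 3 cm above soil; compound applied into paddy water, depth maintained. Greenhouse 13–15 d. Visual rating vs controls, 0–100 (0 = no effect, 100 = complete control); dash = no result.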

[8] = system: sedge, umbrella (small-flower umbrella sedge, Cyperus difformis); experiment: Test C flooded paddy test: sedge, umbrella; conditions: scale 0 to 100 (0 no effect, 100 complete control)
Outline: as §2

[9] = system: ducksalad (Heteranthera limosa); experiment: Test C flooded paddy test: ducksalad; conditions: scale 0 to 100 (0 no effect, 100 complete control)
Outline: as §2

[10] = system: barnyardgrass (Echinochloa crus-galli); experiment: Test C flooded paddy test: barnyardgrass; conditions: scale 0 to 100 (0 no effect, 100 complete control)
Outline: as §2

[11] = 125 g ai/ha, 0 to 100 scale, 0 is no effect, 100 is complete control
[12] = 500 g ai/ha, visual rating on 0 to 100 scale (0 no effect, 100 complete control), approximately ten days
[13] = 125 g ai/ha, 0 to 100 scale (0 no effect, 100 complete control)
[14] = 500 g ai/ha, 0 to 100 scale, 0 is no effect, 100 is complete control
[15] = 125 g ai/ha, 0 to 100 scale where 0 is no effect and 100 is complete control
[16] = Flood (flooded paddy test), 125 g ai/ha, visual rating after 13 to 15 days
[17] = Flood (flooded paddy test), 250 g ai/ha, visual rating after 13 to 15 days

CSc1ccc(-n2nc(C)c(C(=O)c3cccc(C(F)(F)F)c3)n2)cc1 [Compound 93]
Barnyardgrass plant response rating [1, 11]: 0 | Barnyardgrass plant response rating [1, 12]: 10 | Plant response rating, Barnyardgrass [1, 13]: 0 | Plant response rating, Barnyardgrass [1, 14]: 0 | Crabgrass, Large plant response rating [2, 11]: 10 | Crabgrass, Large plant response rating [2, 12]: 20 | Plant response rating, Crabgrass, Large [2, 13]: 0 | Plant response rating, Crabgrass, Large [2, 14]: 0 | Foxtail, Giant plant response rating [3, 11]: 10 | Foxtail, Giant plant response rating [3, 12]: 10 | Plant response rating, Foxtail, Giant [3, 15]: 0 | Plant response rating, Foxtail, Giant [3, 14]: 0 | Morningglory plant response rating [4, 11]: 0 | Morningglory plant response rating [4, 12]: 10 | Plant response rating, Morningglory [4, 15]: 0 | Plant response rating, Morningglory [4, 14]: 0 | Pigweed plant response rating [5, 11]: 10 | Pigweed plant response rating [5, 12]: 20 | Plant response rating, Pigweed [5, 15]: 0 | Plant response rating, Pigweed [5, 14]: 0 | Velvetleaf plant response rating [6, 11]: 10 | Velvetleaf plant response rating [6, 12]: 20 | Plant response rating, Velvetleaf [6, 15]: 0 | Plant response rating, Velvetleaf [6, 14]: 0 | Wheat plant response rating [7, 11]: 0 | Wheat plant response rating [7, 12]: 0 | Plant response rating, Wheat [7, 15]: 0 | Plant response rating, Wheat [7, 14]: 0 | Corn plant response rating (corn (Zea mays); [11]): 10 | Corn plant response rating (corn (Zea mays); [12]): 10 | Plant response rating, Corn (corn (Zea mays); [13]): 0 | Plant response rating, Corn (corn (Zea mays); [14]): 0 | Plant response rating, Rice (rice (Oryza sativa); [16]): 0 | Plant response rating, Rice (rice (Oryza sativa); [17]): 0 | Plant response rating, Rice (rice (Oryza sativa); Flood, 31 g ai/ha): 0 | Plant response rating, Rice (rice (Oryza sativa); Flood, 62 g ai/ha): 0 | Plant response rating, Sedge, Umbrella [8, 16]: 0 | Plant response rating, Sedge, Umbrella [8, 17]: 0 | Plant response rating, Sedge, Umbrella ([8]; Flood, 31 g ai/ha): 0 | Plant response rating, Sedge, Umbrella ([8]; Flood, 62 g ai/ha): 0 | Plant response rating, Ducksalad [9, 16]: 0 | Plant response rating, Ducksalad [9, 17]: 0 | Plant response rating, Ducksalad ([9]; Flood, 31 g ai/ha): 0 | Plant response rating, Ducksalad ([9]; Flood, 62 g ai/ha): 0 | Plant response rating, Barnyardgrass [10, 16]: 0 | Plant response rating, Barnyardgrass [10, 17]: 0 | Plant response rating, Barnyardgrass ([10]; Flood, 31 g ai/ha): 0 | Plant response rating, Barnyardgrass ([10]; Flood, 62 g ai/ha): 0

CCc1nn(-c2ccc(C(F)(F)F)cn2)nc1Cc1cccc(C(F)(F)F)c1 [Compound 108]
Barnyardgrass plant response rating [1, 11]: 40 | Barnyardgrass plant response rating [1, 12]: 70 | Plant response rating, Barnyardgrass [1, 13]: 30 | Plant response rating, Barnyardgrass [1, 14]: 80 | Crabgrass, Large plant response rating [2, 11]: 90 | Crabgrass, Large plant response rating [2, 12]: 90 | Plant response rating, Crabgrass, Large [2, 13]: 90 | Plant response rating, Crabgrass, Large [2, 14]: 100 | Foxtail, Giant plant response rating [3, 11]: 60 | Foxtail, Giant plant response rating [3, 12]: 90 | Plant response rating, Foxtail, Giant [3, 15]: 80 | Plant response rating, Foxtail, Giant [3, 14]: 100 | Morningglory plant response rating [4, 11]: 100 | Morningglory plant response rating [4, 12]: 100 | Plant response rating, Morningglory [4, 15]: 0 | Plant response rating, Morningglory [4, 14]: 20 | Pigweed plant response rating [5, 11]: 90 | Pigweed plant response rating [5, 12]: 100 | Plant response rating, Pigweed [5, 15]: 80 | Plant response rating, Pigweed [5, 14]: 100 | Velvetleaf plant response rating [6, 11]: 60 | Velvetleaf plant response rating [6, 12]: 80 | Plant response rating, Velvetleaf [6, 15]: 0 | Plant response rating, Velvetleaf [6, 14]: 20 | Wheat plant response rating [7, 11]: 20 | Wheat plant response rating [7, 12]: 30 | Plant response rating, Wheat [7, 15]: 0 | Plant response rating, Wheat [7, 14]: 0 | Corn plant response rating (corn (Zea mays); [11]): 20 | Corn plant response rating (corn (Zea mays); [12]): 30 | Plant response rating, Corn (corn (Zea mays); [13]): 0 | Plant response rating, Corn (corn (Zea mays); [14]): 0 | Plant response rating, Rice (rice (Oryza sativa); [16]): 15 | Plant response rating, Rice (rice (Oryza sativa); [17]): 20 | Plant response rating, Rice (rice (Oryza sativa); Flood, 31 g ai/ha): 0 | Plant response rating, Rice (rice (Oryza sativa); Flood, 62 g ai/ha): 0 | Plant response rating, Sedge, Umbrella [8, 16]: 75 | Plant response rating, Sedge, Umbrella [8, 17]: 85 | Plant response rating, Sedge, Umbrella ([8]; Flood, 31 g ai/ha): 20 | Plant response rating, Sedge, Umbrella ([8]; Flood, 62 g ai/ha): 20 | Plant response rating, Ducksalad [9, 16]: 30 | Plant response rating, Ducksalad [9, 17]: 45 | Plant response rating, Ducksalad ([9]; Flood, 31 g ai/ha): 0 | Plant response rating, Ducksalad ([9]; Flood, 62 g ai/ha): 0 | Plant response rating, Barnyardgrass [10, 16]: 20 | Plant response rating, Barnyardgrass [10, 17]: 30 | Plant response rating, Barnyardgrass ([10]; Flood, 31 g ai/ha): 0 | Plant response rating, Barnyardgrass ([10]; Flood, 62 g ai/ha): 0
